# Measurements from the pKa sets of Baltruschat and Czodrowski (2020).
# Conditions: acidic group
row,SMILES,pKa
1,Cc1cc(O)nn1-c1ccccc1,12.1
2,C[C@@H]1C[C@@H]([C@H](O)CC2CC(=O)NC(=O)C2)C(=O)[C@@H](C)C1,11.2
3,O=C(O)/C=C\c1cccc(Cl)c1,3.71
4,FC(F)(F)c1ncnc2nc[nH]c12,7.35
5,Cc1nn(-c2ccccc2)c(O)c1C(C)C,11.6
6,Oc1cc[nH+]c2ccccc12,2.27
7,CC(=O)CC(=O)O,3.09
8,O=C(O)/C=C\c1cccc([N+](=O)[O-])c1,3.63
9,CC(=O)Nc1cccc(O)c1,9.38
10,CSC(=O)C1c2ccccc2-c2ccccc21,10.5
11,N#CC(C#N)=C(C#N)Nc1cccc([N+](=O)[O-])c1,3.45
12,CC(C)c1ccc(C(=O)/C=C/C(=O)O)cc1,3.4
13,COc1ccccc1C(=O)O,4.05
14,C[NH+]1C[C@@H](C(=O)O)C[C@@]2(O)c3cccc4[nH]cc(c34)C[C@@H]12,3.38
15,Fc1cccc(NC=S)c1,10.9
16,CCCc1c(C)[nH]n(C2CC[NH+](C)CC2)c1=O,7.18
17,O=C(O)c1cc([N+](=O)[O-])ccc1F,2.73
18,O=c1ccc(Br)ccc1O,6.32
19,CN(C)c1ccc(/C=N/O)cc1,11.3
20,CC(=O)C1=CC=CC1,8.84
21,O=C(O[C@H]1O[C@@H](C(=O)O)[C@H](O)[C@@H](O)[C@@H]1O)c1ccccc1,2.85

row,SMILES,pKa
1,O=S(=O)(Nc1ccc(Br)cc1)c1ccccc1,7.78
2,O=[PH](O)C([NH2+]Cc1ccc[nH+]c1)c1ccccc1O (configuration not stated),2.35
3,O=C(O)c1c[nH]c2ccccc12,5.27
4,O=C(O)CCCP,4.53
5,CN(C)c1ncc2[nH]cnc2n1,10.2
6,COCC(=O)O,3.53
7,Cn1c[nH+]cc1C[C@H](NC(=O)CC[NH3+])C(=O)O,2.64
8,Cc1ccc(NC(=S)c2ccc(Cl)cc2)cc1,11.2
9,O=C(NO)c1ccccn1,8.6
10,O=c1[nH]c(=S)c2[nH]cnc2[nH]1,6.2
11,CCOP(=O)(O)NS(=O)(=O)c1ccccc1,1.8
12,CCC1(c2ccccc2)C(=O)NC(=S)N(C)C1=O (configuration not stated),7.65
13,Cc1nn(C)c(O)c1Cc1ccccc1,10.9
14,CC=C=CC(C)(C)C(=O)O,4.58
15,O=C(O)[C@H](O)c1cccc([N+](=O)[O-])c1,3.03
16,Oc1cccc[n+]1OCc1ccccc1,-1.7
17,Cc1csc(S(N)(=O)=O)n1,8.35
18,COC(=O)C[C@@H]1[C@@H](C(=O)O)[NH2+]C[C@H]1C(C)O (some centres not stated),2.4
19,O=C([O-])/C=N/O,10.2
20,O=c1cccc(O)cc1O,5.76
21,O=C(O)c1cc2ccccc2o1,2.84

row,SMILES,pKa
1,Cc1cccc(C(=O)O)c1Cl,3
2,CCC#CC(=O)O,2.6
3,COc1cccnc1C(O)O,12.9
4,O=C1CC(=O)NC(=S)N1,4.15
5,Cc1ccc(C(=S)Nc2cccc(F)c2)cc1,10.6
6,Nc1nnnn1CC(=O)O,2.38
7,O=C(O)CCC(=O)c1ccc(-c2ccccc2)cc1,4.46
8,Nc1ccc(S(=O)(=O)Nc2ncccc2O)cc1,7.6
9,Cc1ncc2c(c1O)C(=O)OC2,7.05
10,O=S1(=O)OC(c2cc(Br)c(O)c(Br)c2)(c2cc(Br)c(O)c(Br)c2)c2ccccc21,4.2
11,CC1(C)CC(=O)C(=NO)C(=O)C1,5.4
12,Cc1c(C)c(O)c(C)c(C)c1[O-],12.8
13,O=C([O-])[C@@H]1O[C@H](Oc2ccc3[nH+]ccc(O)c3c2)[C@@H](O)[C@H](O)[C@H]1O,3.7
14,O=C(O)c1ccc2ccccc2[nH+]1,1.79
15,c1c[nH]cn1,14.5
16,CC(C)CN(CC(C)C)C(=S)S,3.4
17,Nc1ncnc2c1ncn2CCOCP(=O)([O-])O,7
18,O=[N+]([O-])c1ccc(-c2ccc(O)cc2)cc1,9.01
19,CC(C)O,16.1
20,CCC(=O)c1nc(C(=O)O)cs1,3.7
21,O=[N+]([O-])c1cc(Cl)ccc1[Se]O,10.2

row,SMILES,pKa
1,CCCCCCCc1c(-c2ccccc2)n[nH]c1O,9.2
2,O=c1[nH]c2ccccc2[nH]c1=O,9.67
3,CC[NH+](CC)CC(=O)O,1.98
4,C[n+]1ccc(C(=O)O)cc1,1.72
5,N#CC(C(=O)O)C1CCCCC1 (configuration not stated),2.37
6,O=C(O)CC(c1[nH]cc[nH+]1)c1[nH]cc[nH+]1,2.79
7,N#CC(C#N)=NNc1ccccc1O,6.1
8,O=C1O[C@@H]([C@H](O)[C@@H](O)[C@@H](O)CO)C(O)=C1O,4.3
9,O=C(O)C1CCC[NH2+]1 (configuration not stated),1.99
10,O=N/C(Cc1ccccc1)=N\O,5.3
11,CN(C)C(=O)c1ncnc2nc[nH]c12,7.9
12,CC1=NS(=O)(=O)c2ncccc2N1,7.58
13,Cc1nc2ccccc2[nH+]c1O,0.48
14,CC[NH+](CC)Cc1c(O)cccc1Cl,7.5
15,O=C(O)c1cccc2cc3ccccc3cc12,3.7
16,Oc1ccc2ccc3ccccc3c2c1,9.28
17,S=c1[nH]c2ccccc2o1,6.33
18,CC(=O)N(C)c1nnc(S(N)(=O)=O)s1,7.4
19,O=C(O)/C=C/SC1CCCCC1,4.7
20,O=C([O-])[C@H](NCC[NH2+][C@@H](C(=O)[O-])c1ccccc1[O-])c1ccccc1O,10.9
21,Cc1ccc(C(N)=S)cc1,12.8

# Same assay, conditions: basic group
row,SMILES,pKa
1,CC(=O)Nc1ccc2cc3ccccc3nc2c1,5.6
2,C[C@H](CCCNCc1ccccc1)[C@H]1CC[C@H]2[C@@H]3[C@@H](O)C[C@@H]4C[C@H](O)CC[C@]4(C)[C@H]3CC[C@]12C,9.05
3,CC(=O)c1cccnc1,3.32
4,CN(C)C1CC(C)(C)[NH2+]C(C)(C)C1,7.67
5,Cn1ncc2c(Nc3ccccc3)ncnc21,3.53
6,Cn1c[nH+]c2cccc(N)c21,2.36
7,C[C@H]1C[C@@H]2CCN1C2,10.6
8,Oc1cccc2[nH]ncc12,8.65
9,c1cnc2c(c1)ccc1cccnc12,4.96
10,N#CC(CCN1CCOCC1)(c1ccccc1)c1ccccc1,6.09
11,N=C(c1ccccc1)c1ccccc1Cl,5.59
12,Cc1nc2cncnc2nc1C,2.93
13,Cc1nccnc1C,2.24
14,CN(C)Cc1c(C(C)(C)C)cccc1C(C)(C)C,9.2
15,CC(C)(C)N1CC(O[Si](C)(C)C)C1,9.24
16,CNNC1CCN(C(C)C)CC1,9.1
17,Cc1cc(C)c(C[NH3+])cc1N,4.57
18,Cc1ccccc1/C(=N/CCC[NH+](C)C)c1ccc2ccccc2c1,4.54
19,COc1cccc(C(=O)N[C@H]2C[C@H]3CC[C@@H](C2)N3Cc2ccccc2)c1OC,8.91
20,CN(C)c1ccc(C2CN3CCC2CC3)cc1 (configuration not stated),10.3
21,Nc1ccc2cc3ccc4ccccc4c3nc2c1,6.72

row,SMILES,pKa
1,CC(C)N1C2CCCC21 (configuration not stated),8.31
2,CNc1ccc(O)cc1,6
3,CN(C)c1ncc2[nH]cnc2n1,4.02
4,CCN(CC1CO1)CC1CO1 (configuration not stated),6.91
5,O=c1[nH]c(=S)c2[nH]cnc2[nH]1,0.9
6,C[C@H]1[C@@H](N)[C@@H](C)[C@@H]([NH3+])[C@@H](C)[C@H]1N,6.73
7,CC(C)CCCC(C)N (configuration not stated),10.3
8,Nc1ccnc([O-])n1,12.2
9,CSc1cc2ccccc2cn1,3.41
10,CN(C)CCOC(c1ccccc1)c1ccc(Br)cc1 (configuration not stated),8.64
11,CCCC(=O)C(CCN1CCOCC1)(c1ccccc1)c1ccccc1,7.17
12,Cc1cc(C)nc([S-])n1,8.5
13,CC1CCCCC1=N (configuration not stated),9.38
14,Cc1cnccn1,1.42
15,COc1cnccc1N,9.03
16,O=C(CCNCCC(=O)c1ccccc1)c1ccccc1,8.69
17,CC(O)CN(CCN1CCOCC1)CC(C)O (configuration not stated),7.9
18,CN(C)c1ccc(N=O)cc1,4.54
19,O=[N+]([O-])c1cnc([O-])nc1[O-],11.5
20,CN(C)c1ccc(/C=C/c2cc[n+]([O-])cc2)cc1,4.3
21,NCCCCc1ccccc1,10.4

row,SMILES,pKa
1,CN(C)[C@H]1CCCC[C@@H]1O,10.4
2,NC(N)=S,-0.96
3,Cc1cc(C)cc(N)c1,4.81
4,C[NH+](C)C[C@@H]1[C@@H](N)[C@]2(C)CC[C@@H]1C2(C)C,7.5
5,NCCCc1ccccn1,10.1
6,CNCCCC(=O)[O-],10.8
7,c1c[nH]cn1,7.07
8,Cn1ccnc1-c1[nH+]ccn1C,0.5
9,C#C[C@]1(O)C[C@@H](C)N(C)[C@@H]2CCCC[C@H]21,9.53
10,N[C@@H]1C[C@@H]2CCCC[C@H]2C[C@@H]1N,9.93
11,Nc1ccc(Cl)cc1[N+](=O)[O-],-0.88
12,CC(=O)C(CCN1CCOCC1)(c1ccccc1)c1ccccc1,6.83
13,CC(O)CN(C)CCO (configuration not stated),8.69
14,CC[NH+](CC)Cc1cn2nc(-c3ccccc3)cc(C)c2n1,2.2
15,Nc1ncnc2c1ncn2CCOCP(=O)([O-])O,4.18
16,CCN(C)CCCNC(=O)/C=N/[O-],9.97
17,CC1=C(CC(C)NCC(O)c2ccc(N)cc2)CCC1(C)C (configuration not stated),9.01
18,[NH3+][C@@H](Cc1c[nH]cn1)C(=O)N[C@@H](Cc1c[nH]c[nH+]1)C(=O)[O-],5.6
19,CC(C)NNC1CCN(C)CC1,9.07
20,N/C(CC(N)c1ccccc1)=N\O (configuration not stated),8
21,[NH3+]CCN1CCOCC1,4.84

row,SMILES,pKa
1,COc1ccc(C2NCCS2)cc1 (configuration not stated),5.45
2,Cc1ccccc1/C(=N\CCCN(C)C)c1ccccc1-c1ccccc1,9.25
3,CCCN(CCO)CC(O)CC (configuration not stated),9
4,CC1[C@H](N)[C@H]1N (some centres not stated),8.98
5,Cn1cnc2cc(N)ccc21,6.29
6,CC1CCN(C)C(C)(C)C1 (configuration not stated),10.2
7,Cc1ccc(-c2ncc(-c3ccc(Cl)cc3)o2)cc1,0.88
8,CC(C)(C)c1ccncc1,5.95
9,c1ccc(-c2cccc(-c3ccccn3)n2)nc1,4.66
10,CCOC(C)=N,7.15
11,CCN(CC)Cc1cc([N+](=O)[O-])c2ccccc2c1[O-],11
12,c1ccc(NCCN2CCCCC2)cc1,9.2
13,NCCCCC[NH3+],9.73
14,Nc1nc(N)nc(N(CCO)CCO)n1,5.1
15,Cc1nc2cc(N)ccc2n1C,7
16,NCCCNCCO,10.3
17,CC1(C)[C@@H](N)[C@@H]1N,8.96
18,N[C@H]1C[C@@H]1N,8.82
19,CCN1CCCCC1C (configuration not stated),10.7
20,OCCNC1CC[NH+](Cc2ccccc2)CC1,6.67
